Results reported in ChEMBL document CHEMBL1126353, “Substituted benzamides with conformationally restricted side chains. 4. Hetero-azabicyclo[x.y.0] derivatives as gastric prokinetic agents” (1992).
Activity calls are given as the source filed them. The calls are words filed in the database; no cut-off is given here.

Key:
[1] = Ratio of ability to inhibit apomorphine induced climbing to that of increasing intragastric pressure in rats; type: functional
[2] = target: Dopamine receptor (Rattus norvegicus) (UniProt P25115+P19020+P30729+P18901+P61169); assay: Dopamine receptor antagonist activity expressed as ability to inhibit apomorphine-induced climbing behavior in rat on subcutaneous administration.; type: functional, organism-based
Rattus norvegicus = assay: Prokinetic activity expressed as ability to increase intragastric pressure in rat on subcutaneous administration; type: functional
Canis familiaris = assay: Compound was tested for inhibiting apomorphine-induced emesis in dog up to a dose of 10 mg/kg when administered subcutaneously; E - compound found effective; type: functional, organism-based; parameters: dose 10 mg/kg; conditions: Canis lupus familiaris

| SMILES | ED50 [2] [mg/kg] | Ratio [1] | Activity (Rattus norvegicus) [mg/kg] | Activity (Canis familiaris) |
| --- | --- | --- | --- | --- |
| COc1cc(N)c(Cl)cc1C(=O)NC1CCN2CC[S+]([O-])CC2C1 (stereo in doubt; 22) [listing 1 of 2 here] |  |  | 1 |  |
| COc1cc(N)c(Cl)cc1C(=O)NC1CCN2CCOCC2C1 (stereo in doubt; 14) [listing 1 of 2 here] |  | 350 | 0.2 |  |
| COc1cc(N)c(Cl)cc1C(=O)NC1CCN2CC[S+]([O-])CC2C1 (stereo in doubt; 21) [listing 1 of 2 here] |  |  | 5 |  |
| COc1cc(N)c(Cl)cc1C(=O)NC1CCCN2CCSCC12 (stereo in doubt; 24) [listing 1 of 2 here] |  | 30 | 1 |  |
| COc1cc(N)c(Cl)cc1C(=O)NC1CCN2CC[S+]([O-])CC2C1 (stereo in doubt; 22) [listing 2 of 2 here] |  |  |  | Active |
| COc1cc(N)c(Cl)cc1C(=O)NC1CN2Cc3ccccc3CN2C1 | 10 |  | >1 |  |
| CCN(CC)CCNC(=O)c1cc(Cl)c(N)cc1OC [METOCLOPRAMIDE] | 0.8 | 0.8 | 1 |  |
| COc1cc(N)c(Cl)cc1C(=O)NC1CCCN2CCSCC12 (stereo in doubt; 23) [listing 1 of 2 here] |  |  | >5 |  |
| COc1cc(N)c(Cl)cc1C(=O)NC1CCCN2CCOCC12 (stereo in doubt; 18) [listing 2 of 2 here] |  |  | 1 |  |
| COc1cc(N)c(Cl)cc1C(=O)NC1CCN2CCOCC2C1 (stereo in doubt; 15) [listing 2 of 2 here] |  | 30 | 1 |  |
| COc1cc(N)c(Cl)cc1C(=O)NC1CCCN2CCOCC12 (stereo in doubt; 17) [listing 1 of 2 here] |  |  | >5 |  |
| COc1cc(N)c(Cl)cc1C(=O)NC1CN2CCC(c3ccccc3)CN2C1 (stereo not drawn) | 5 |  | >1 |  |

Continued, in another order:

| ED50 [2] [mg/kg] | SMILES | Ratio [1] | Activity (Rattus norvegicus) [mg/kg] | Activity (Canis familiaris) |
| --- | --- | --- | --- | --- |
| 10 | COc1cc(N)c(Cl)cc1C(=O)NC1CN2CCCCN2C1 | 20 | 0.5 |  |
| 30 | COc1cc(N)c(Cl)cc1C(=O)NC1CCN2CCOCC2C1 (stereo in doubt; 15) [listing 1 of 2 here] |  |  |  |
| > 25 | COc1cc(N)c(Cl)cc1C(=O)NC1CCCN2CCOCC12 (stereo in doubt; 18) [listing 1 of 2 here] |  |  |  |
| > 50 | COc1cc(N)c(Cl)cc1C(=O)NC1CN2CC=CCN2C1 |  | >1 |  |
| 70 | COc1cc(N)c(Cl)cc1C(=O)NC1CCN2CCOCC2C1 (stereo in doubt; 14) [listing 2 of 2 here] |  |  |  |
| 25 | COc1cc(N)c(Cl)cc1C(=O)NC1CCN2C(C)CCCC2C1 (stereo not drawn) [BRL-20627] | 50 | 0.5 |  |
| 40 | COc1cc(N)c(Cl)cc1C(=O)NC1CCN2C(C)COCC2C1 (stereo not drawn) | 200 | 0.2 |  |
| > 25 | COc1cc(N)c(Cl)cc1C(=O)NC1CCN2CCSCC2C1 (stereo not drawn) |  | 1 | Active |
| 30 | COc1cc(N)c(Cl)cc1C(=O)NC1CCCN2CCSCC12 (stereo in doubt; 24) [listing 2 of 2 here] |  |  |  |
| 5 | COc1cc(N)c(Cl)cc1C(=O)NC1CCCN2CCSCC12 (stereo in doubt; 23) [listing 2 of 2 here] |  |  |  |
| > 10 | COc1cc(N)c(Cl)cc1C(=O)NC1CCN2CC[S+]([O-])CC2C1 (stereo in doubt; 21) [listing 2 of 2 here] |  |  |  |
| 30 | COc1cc(N)c(Cl)cc1C(=O)NC1CCCN2CCOCC12 (stereo in doubt; 17) [listing 2 of 2 here] |  |  |  |
| 30 | COc1cc(N)c(Cl)cc1C(=O)NC1CCN2CCCCN2C1 (stereo not drawn) | 30 | 1 |  |
